Assay results published in US20240002395A1, “COMPOUNDS AND THEIR USE FOR TREATING NEUROPATHIC PAIN” (The Johns Hopkins University, priority 2020, published 2024).

How the values were obtained:
human MrgprX1 = molecular target: T1, human MrgprX1 (Homo sapiens, UniProt Q96LB2); test: MrgprX1 positive allosteric modulator (PAM) calcium FLIPR assay in HEK293 cells; assay type: cell-based; details: PAM activity in presence of EC20 concentration of BAM8-22; HEK293 cells stably transfected with human MrgprX1
T1 construct: expressed in transfected cells
T1 sequence (Q96LB2 whole entry): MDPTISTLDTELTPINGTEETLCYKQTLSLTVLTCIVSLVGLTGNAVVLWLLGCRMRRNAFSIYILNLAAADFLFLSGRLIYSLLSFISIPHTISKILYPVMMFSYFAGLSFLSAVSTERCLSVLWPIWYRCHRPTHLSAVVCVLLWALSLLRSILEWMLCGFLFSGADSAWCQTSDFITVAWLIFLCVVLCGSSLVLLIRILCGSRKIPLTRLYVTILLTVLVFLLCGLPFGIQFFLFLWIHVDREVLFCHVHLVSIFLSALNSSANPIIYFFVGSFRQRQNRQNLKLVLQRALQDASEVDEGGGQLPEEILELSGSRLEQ
Procedure: HEK293 cells stably transfected with human MrgprX1 were plated onto poly-D-lysine-coated, black-walled, 96-well plates at a seeding density of 12,000 cells/well and grown for two days. On the day of the experiment, cells were incubated with Fluo-4 AM 2 μM, pluronic acid 0.04% and Trypan Red 1% in HBSS (pH 7.4, 100 μL) for 1 h at 37° C. For each different passage of cells, a BAM8-22 dose response was first conducted and the BAM8-22 EC20 determined. Test compounds were then dissolved and serially diluted in DMSO, further diluted with Trypan Red (1%)-containing HBSS (50 μL) and added to cells (0.33% DMSO concentration by volume) to first monitor for agonist activity. After 2.5 min, BAM8-22 at 4-fold EC20 (50 μL) was added to cells (0.25% DMSO concentration by volume) and the cells imaged on the FLIPR for an additional 2 minutes to monitor the test compounds for PAM activity. Finally, data were normalized to fluorescence signals obtained from 250 nM of BAM8-22 (maximum) and BAM8-22 at its EC20 concentration (minimum). EC50 of a test compound was defined as the concentration required to provoke a response halfway between the minimum and maximum response in the presence of EC20 concentration of BAM8-22.

SMILES	EC50 (human MrgprX1)	melting point
CC1CCCCC1Oc1ncnc2sc(C(C)(C)C)c(-c3ccc(Cl)c(Cl)c3)c12 (mixture of isomers) [Compound 7ac, 6-tert-butyl-5-(3,4-dichlorophenyl)-4-(2-methylcyclohexyloxy)thieno[2,3-d]pyrimidine]	100 nM	–
Cc1ccccc1Oc1ncnc2oc(-c3ccccc3)cc12 [B, 6-Phenyl-4-(o-tolyloxy)furo[2,3-d]pyrimidine, reference compound]	1000 nM	–
Cc1cccc(Oc2ncnc3oc(-c4ccccc4)cc23)c1C [C, 4-(2,3-Dimethylphenoxy)-6-phenylfuro[2,3-d]pyrimidine, reference compound]	70000 nM	–
CC(C)(C)c1sc2ncnc(OC3CCCCC3)c2c1-c1ccc(Cl)c(Cl)c1 [Compound 7aa, 6-tert-butyl-4-(cyclohexyloxy)-5-(3,4-dichlorophenyl)thieno[2,3-d]pyrimidine]	100 nM	121 °C
CN1CCCC(Oc2ncnc3sc(C(C)(C)C)c(-c4ccc(Cl)c(Cl)c4)c23)C1 (stereo not shown) [Compound 7ab, 6-tert-butyl-5-(3,4-dichlorophenyl)-4-(1-methylpiperidin-3-yloxy)thieno[2,3-d]pyrimidine]	6000 nM	–
CC(C)(C)c1sc2ncnc(OC3CC4CCC3C4)c2c1-c1ccc(Cl)c(Cl)c1 (stereo not shown) [Compound 7ad, 4-(bicyclo[2.2.1]heptan-2-yloxy)-6-tert-butyl-5-(3,4-dichlorophenyl)thieno[2,3-d]pyrimidine]	300 nM	152 °C
CC(C)(C)c1sc2ncnc(OC3CCCCCC3)c2c1-c1ccc(Cl)c(Cl)c1 [Compound 7ae, 6-tert-butyl-4-(cycloheptyloxy)-5-(3,4-dichlorophenyl)thieno[2,3-d]pyrimidine]	400 nM	–
CC(C)(C)c1sc2ncnc(OC3CCCCC3C(F)(F)F)c2c1-c1ccc(Cl)c(Cl)c1 (stereo not shown) [Compound 7af, 6-tert-butyl-5-(3,4-dichlorophenyl)-4-(2-(trifluoromethyl)cyclohexyloxy)thieno[2,3-d]pyrimidine]	100 nM	139 °C
CC(C)(C)c1sc2ncnc(OC3CCCCC3F)c2c1-c1ccc(Cl)c(Cl)c1 (stereo not shown) [Compound 7ag, 6-tert-butyl-5-(3,4-dichlorophenyl)-4-(2-fluorocyclohexyloxy)thieno[2,3-d]pyrimidine]	100 nM	144 °C
CC(C)(C)c1sc2ncnc(OC3CCCCC3(C)C)c2c1-c1ccc(Cl)c(Cl)c1 (stereo not shown) [Compound 7ah, 6-tert-butyl-5-(3,4-dichlorophenyl)-4-(2,2-dimethylcyclohexyloxy)thieno[2,3-d]pyrimidine]	300 nM	128 °C
CC(C)(C)c1sc2ncnc(OC3(C(F)(F)F)CCCCC3)c2c1-c1ccc(Cl)c(Cl)c1 [Compound 7ai, 6-tert-butyl-5-(3,4-dichlorophenyl)-4-(1-(trifluoromethyl)cyclohexyloxy)thieno[2,3-d]pyrimidine]	> 10000 nM	142 °C
CC(C)(C)c1sc2ncnc(Oc3ccccc3F)c2c1-c1ccc(F)c(F)c1 [Compound 7aj, 6-tert-butyl-5-(3,4-difluorophenyl)-4-(2-fluorophenoxy)thieno[2,3-d]pyrimidine]	–	171 °C
CC(C)(C)c1sc2ncnc(Oc3c(F)cccc3F)c2c1-c1ccc(F)c(F)c1 [Compound 7ak, 6-tert-butyl-4-(2,6-difluorophenoxy)-5-(3,4-difluorophenyl)thieno[2,3-d]pyrimidine]	70 nM	185 °C
CC(C)(C)c1sc2ncnc(Oc3ccccc3OC(F)(F)F)c2c1-c1ccc(F)c(F)c1 [Compound 7am, 6-tert-butyl-5-(3,4-difluorophenyl)-4-(2-(trifluoromethoxy)phenoxy)thieno[2,3-d]pyrimidine]	70 nM	146 °C
CC(C)(C)c1sc2ncnc(Oc3ccccc3OC(F)(F)F)c2c1-c1ccc(Cl)cc1 [Compound 7an, 6-tert-butyl-5-(4-chlorophenyl)-4-(2-(trifluoromethoxy)phenoxy)thieno[2,3-d]pyrimidine]	80 nM	136 °C
CC(C)(C)c1sc2ncnc(Oc3c(F)cccc3F)c2c1-c1ccc(Cl)cc1 [Compound 7ap, 6-tert-butyl-5-(4-chlorophenyl)-4-(2,6-difluorophenoxy)thieno[2,3-d]pyrimidine]	30 nM	176 °C
CC(C)(C)c1sc2ncnc(Oc3ccccc3OC(F)(F)F)c2c1-c1cccc(Cl)c1 [Compound 7aq, 6-tert-butyl-5-(3-chlorophenyl)-4-(2-(trifluoromethoxy)phenoxy)thieno[2,3-d]pyrimidine]	100 nM	129 °C

SMILES	EC50 (human MrgprX1)	melting point
CC(C)(C)c1sc2ncnc(Oc3c(F)cccc3OC(F)(F)F)c2c1-c1cccc(Cl)c1 [Compound 7ar, 6-tert-butyl-5-(3-chlorophenyl)-4-(2-fluoro-6-(trifluoromethoxy)phenoxy)thieno[2,3-d]pyrimidine]	30 nM	126 °C
CC(C)(C)c1sc2ncnc(Oc3c(F)cccc3F)c2c1-c1cccc(Cl)c1 [Compound 7as, 6-tert-butyl-5-(3-chlorophenyl)-4-(2,6-difluorophenoxy)thieno[2,3-d]pyrimidine]	50 nM	146 °C
CC(C)(C)c1sc2ncnc(Oc3c(F)cccc3F)c2c1-c1ccc(F)cc1 [Compound 7at, 6-tert-butyl-4-(2,6-difluorophenoxy)-5-(4-fluorophenyl)thieno[2,3-d]pyrimidine]	70 nM	186 °C
CC(C)(C)c1sc2ncnc(Oc3ccccc3F)c2c1-c1ccc(F)cc1 [Compound 7au, 6-tert-butyl-4-(2-fluorophenoxy)-5-(4-fluorophenyl)thieno[2,3-d]pyrimidine]	300 nM	194 °C
CC(C)(C)c1sc2ncnc(Oc3ccccc3OC(F)(F)F)c2c1-c1cccc(F)c1 [Compound 7av, 6-tert-butyl-5-(3-fluorophenyl)-4-(2-(trifluoromethoxy)phenoxy)thieno[2,3-d]pyrimidine]	100 nM	150 °C
CC(C)(C)c1sc2ncnc(Oc3c(F)cccc3F)c2c1-c1cccc(F)c1 [Compound 7aw, 6-tert-butyl-4-(2,6-difluorophenoxy)-5-(3-fluorophenyl)thieno[2,3-d]pyrimidine]	100 nM	180 °C
CC(C)(C)c1sc2ncnc(Sc3ccccc3OC(F)(F)F)c2c1-c1ccc(Cl)c(Cl)c1 [Compound 7ax, 6-tert-butyl-5-(3,4-dichlorophenyl)-4-(2-(trifluoromethoxy)phenylthio)thieno[2,3-d]pyrimidine]	200 nM	165 °C
Cc1nc(Oc2ccccc2)c2ccsc2n1 [Compound 7ay, 2-methyl-4-phenoxythieno[2,3-d]pyrimidine]	6000 nM	100 °C
CCOC(=O)c1c(C(C)(C)C)sc2ncnc(Oc3c(F)cccc3OC(F)(F)F)c12 [Compound 7be, Ethyl 6-(tert-butyl)-4-(2-fluoro-6-(trifluoromethoxy)phenoxy)thieno[2,3 d]pyrimidine-5-carboxylate]	60 nM	–
CC(C)(C)c1sc2ncnc(Oc3c(F)cccc3OC(F)(F)F)c2c1N1CCCC1 [Compound 7bf, 6-(tert-butyl)-4-(2-fluoro-6-(trifluoromethoxy)phenoxy)-5-(pyrrolidin-1-yl)thieno[2,3-d]pyrimidine]	30 nM	115 °C
CC1CCCN1c1c(C(C)(C)C)sc2ncnc(Oc3c(F)cccc3OC(F)(F)F)c12 (stereo not shown) [Compound 7bg, 6-(tert-butyl)-4-(2-fluoro-6-(trifluoromethoxy)phenoxy)-5-(2-methylpyrrolidin-1-yl)thieno[2,3-d]pyrimidine]	70 nM	–
CC(C)(C)c1sc2ncnc(Oc3c(F)cccc3OC(F)(F)F)c2c1N1CCCCC1 [Compound 7bh, 6-(tert-butyl)-4-(2-fluoro-6-(trifluoromethoxy)phenoxy)-5-(piperidin-1-yl)thieno[2,3-d]pyrimidine]	40 nM	133 °C
CC(C)(C)c1sc2ncnc(Oc3ccc([N+](=O)[O-])cc3OC(F)(F)F)c2c1-c1ccc(Cl)c(Cl)c1 [Compound 7f, 6-tert-butyl-5-(3,4-dichlorophenyl)-4-(4-nitro-2-(trifluoromethoxy)phenoxy)thieno[2,3-d]pyrimidine]	> 100000 nM	–
COc1ncccc1Oc1ncnc2sc(C(C)(C)C)c(-c3ccc(Cl)c(Cl)c3)c12 [Compound 7i, 6-tert-butyl-5-(3,4-dichlorophenyl)-4-(2-methoxypyridin-3-yloxy)thieno[2,3-d]pyrimidine]	–	173 °C
CC(C)(C)c1sc2ncnc(Oc3ccccc3C#N)c2c1-c1ccc(Cl)c(Cl)c1 [Compound 7v, 2-(6-tert-butyl-5-(3,4-dichlorophenyl)thieno[2,3-d]pyrimidin-4-yloxy)benzonitrile]	500 nM	–
CN(C)C(=O)COc1ncnc2scc(-c3ccc(F)cc3)c12 [Compound A, 2-((5-(4-Fluorophenyl)thieno[2,3-d]pyrimidin-4-yl)oxy)-N,N-dimethylacetamide, reference compound]	> 100000 nM	–
Cc1ccc(Oc2ncnc3sccc23)cc1 [E, 4-(p-Tolyloxy)thieno[2,3-d]pyrimidine, reference compound]	900 nM	–
